The assay has as its system Boophilus microplus, Biarra-Stamm. As to the kind of experiment: In vitro tick test: inhibition of egg laying after dipping adult engorged female ticks. As to conditions: Rhipicephalus microplus, 480 h, resistant strain, ticks dipped for 1 minute, read after 20 days, read-out: 50 % Hemmung bei einer Wirkstoff-konzentration in ppm a.i.von. The source says:
Lösungsmittel: 35 Gewichtsteile Ethylenglykolmonomethylether 35 Gewichtsteile Nonylphenolpolyglykolether
Zwecks Herstellung einer geeigneten Formulierung vermischt man drei Gewichtsteile Wirkstoff mit sieben Teilen des oben angegebenen Lösungsmittel-Emulgator-Gemisches und verdünnt das so erhaltene Emulsionskonzentrat mit Wasser auf die jeweils gewünschte Konzentration.
In diese Wirkstoffzubereitungen werden adulte, vollgesogene Zeckenweibchen der Art Boophilus microplus (resistent) eine Minute lang getaucht. Nach dem Tauchen von je 10 weiblichen Exemplaren überführt man diese in Petrischalen, deren Boden mit einer entsprechend großen Filterscheibe belegt ist.
Nach 20 Tagen wird die Wirksamkeit der Wirkstoffzubereitung bestimmt durch Ermittlung der Hemmung der Eiablage gegenüber unbehandelten Kontrollzecken. Die Wirkung drückt man in Prozent aus, wobei 100 % bedeutet, daß keine Eier mehr abgelegt wurden und 0 % besagt, daß die Zecken Eier in normaler Menge ablegten.
Untersuchter Wirkstoff, geprüfte Konzentration, getestete Parasiten und erhaltene Befunde gehen aus der folgenden Tabelle 1 hervor.

Some results are limits rather than exact numbers.

As for `Cc1cc(Cl)ccc1NC(=S)N(C)C` [Chloromethiuron], the IC50 is more than 5000 µg/mL.

These data come from patent EP0073960A1, “2-Arylhydrazino-2-imidazolines, their acyl derivatives, process for their preparation and their use in the control of endoparasites and ectoparasites” (BAYER AG, priority 1981, dated 1983).
